“Also recorded” adds a separate entry of the source.
Assays:
[1] = tested on: HUVECs; test: Cell apoptosis assay, HUVECs exposed to H2O2; assay type: cell-based, human
Protocol: HUVECs were treated with PBS (vehicle), NaHS (100 μM), NMN (500 μM) or NMN+NaHS for 6 h, followed by exposure to H2O2 (600 μM) for another 4 h. After treatments, the number of apoptotic cells was determined using Annexin V-FITC apoptosis detection kit (eBioscience) as per manufacturer's instructions. Briefly, cells were collected by trypsinization and centrifugation at 1500 rpm for 5 minutes, followed by washing cell pellet twice with cold PBS and resuspending cell pellet in 1× Annexin-binding buffer. Then, 5 μL of Annexin-V FITC was added to 195 μL of cell suspension and incubated at room temperature for 15 min in the dark. After the incubation, cells were centrifuged, resuspended in 195 μL of 1× Annexin-binding buffer and then 5 μL of propidium iodide working solution was added. After mixing gently, the fluorescence intensity was detected with a flow cytometry (FACSCanto II Analyzer, BD Biosciences) at emission at 530 nm and 575 nm and excitation at 488 nm. […]

[2] = tested on: NAD^+; test: NAD+ measurements in tissues of NMN-treated mice; assay type: in vivo, mouse; details: 18-month old mice, NMN 400 mg/kg/day in drinking water, two months; liver and gastrocnemius
Text: SIRT1-iKO, SIRT1-Tg and SIRT1^STOP mice were described previously (Firestein et al., 2008, PLoS One 3, e2020; Price et al., 2012, Cell Metab 15, 675-690). Tie2Cre and Sirt1^flox/flox mice were purchased from Jackson Laboratory (Bar Harbor, ME). MCK-PGC-1α and MyogCre mice were gifts from Dr. Bruce Spiegelman (Dana Farber Cancer Center, MA) and Dr. Eric N. Olson (UT Southwestern, Dallas, TX), respectively. mT-STOP^flox/flox, Gfp mouse was generated in house by E.O.W., which consists of an allele driven by ubiquitous actin B promoter, which has loxP sites flanking membrane-targeted tandem dimer Tomato (mT) and transcriptional STOP cassette, followed by a GFP coding sequence. […] SIRT1-iKO mice were fed tamoxifen (360 mg/kg) diet for five weeks to elicit whole-body SIRT1 exon 4 excision as described previously (Price et al., 2012). […] Levels of NAD^+ and NADH levels were measured in EC and muscle homogenates using commercially available kit (NAD-NADH Glo, Promega) according to manufacturer's instructions. Alternatively, NAD^+ levels in muscle and liver were measured by assay in-house developed method (Uddin et al., 2016, Front Pharmacol 7, 258). […] The other aliquot was acidified with HCl, and then neutralized with NaOH on ice to quantify NAD^+. […] Total NADH and NAD^+ were quantified using a Bio-Rad Imark microplate reader.

[3] = tested on: C57BL/6J mice; test: Skeletal muscle capillaries by CD31/laminin immunofluorescence in old mice; assay type: in vivo, mouse; details: NMN 400 mg/kg/day, two months
Text: SIRT1-iKO, SIRT1-Tg and SIRT1^STOP mice were described previously (Firestein et al., 2008, PLoS One 3, e2020; Price et al., 2012, Cell Metab 15, 675-690). Tie2Cre and Sirt1^flox/flox mice were purchased from Jackson Laboratory (Bar Harbor, ME). MCK-PGC-1α and MyogCre mice were gifts from Dr. Bruce Spiegelman (Dana Farber Cancer Center, MA) and Dr. Eric N. Olson (UT Southwestern, Dallas, TX), respectively. mT-STOP^flox/flox, Gfp mouse was generated in house by E.O.W., which consists of an allele driven by ubiquitous actin B promoter, which has loxP sites flanking membrane-targeted tandem dimer Tomato (mT) and transcriptional STOP cassette, followed by a GFP coding sequence. […] SIRT1-iKO mice were fed tamoxifen (360 mg/kg) diet for five weeks to elicit whole-body SIRT1 exon 4 excision as described previously (Price et al., 2012). […] NMN stock was changed twice per week and […]4137 was supplemented daily. Axitinib (30 mg/kg/day) was given via food and changed daily. Freshly isolated whole quadriceps and gastrocnemius muscle samples were mounted in OCT compound (Tissue-Tek), placed in an isopentane bath and slowly cooled in liquid nitrogen. Transverse sections at 20 μm-thickness were sectioned on a cryostat (Leica). The sections were fixed in pre-cooled acetone (-20° C.) for 10 min and washed with PBS. […] Slides were washed with PBST and then incubated with anti-rat Alexa Fluor 488-conjugated (Life Technologies) and anti-rabbit Alexa Fluor 594-conjugated (Life Technologies) antibodies diluted to 1:500 in blocking buffer for 2 h at room temperature. Slides were washed again with PBST and mounted with Fluoroshield with DAPI mounting medium (Sigma). Images were acquired using a confocal fluorescence microscope (Nikon A1). Quantification of capillaries and capillary density were performed using ImageJ software. TUNEL staining was performed in muscle sections using in situ BrdU-Red DNA fragmentation (TUNEL) assay kit (Abcam) as per manufacturer's protocol.

[4] = tested on: HUVECs; test: Seahorse analysis of oxygen consumption rate; assay type: cell-based, human; details: NaHS 100 μM, NMN 500 μM
Protocol: Oxygen consumption rates were measured in accordance with manufacturer instructions using Seahorse XF96 analyzer (Seahorse Bioscience). Briefly, 40,000 HUVECs were plated onto XF96 plates and incubated overnight at 37° C./5% CO2. Next day, the media was replaced with XF assay media (DMEM), supplemented with glucose (1 g/L), glutamate (2 mM) and pyruvate (1 mM) and the pH was adjusted to 7.4. NaHS (100 μM) and/or NMN (500 μM) were added at the start of the experiment. Oxygen consumption measurements were made approximately every 8 minutes under basal conditions, and after the addition of oligomycin (1 μM). Experiments were replicated in six wells and averaged for each experimental condition.

NC(=O)c1ccc[n+]([C@@H]2O[C@H](COP(=O)([O-])O)[C@@H](O)[C@H]2O)c1 [NMN, nicotinamide mononucleotide]
percentage of cells undergoing early apoptosis ([1]; NMN 500 μM 6 h, then H2O2 600 μM 4 h): reduced the percentage of cells undergoing early apoptosis | reduction of apoptosis in response to H2O2 ([1]; NaHS 0.1 mM and/or NMN 0.5 mM 6 hrs, then H2O2 600 μM 4 hrs): 13% | NAD^+ levels in tissues [2]: raised NAD^+ levels | gastrocnemius capillarity ([3]; 20-month old WT mice): increased capillaries; also recorded: increased gastrocnemius capillarity | gastrocnemius capillarity ([3]; 20-month old tamoxifen-treated SIRT1-iKO mice): not in SIRT1-iKO mice; also recorded: no change | number of capillaries and capillary density (quadriceps, gastrocnemius) ([3]; old mice): restored | basal OCR [4]: had no effect

From US12616713B2, “Methods for enhancing vascular density” (priority 2016, dated 2026)
